Earlier results in US12245592B2, “Encapsulated biocides and biorepellents” (Aerogel ApS, priority 2018, dated 2025).

Conditions: pure biocide

On1ccccc1=S.On1ccccc1=S.[Cu] [Copper pyrithione, copper pyrithione]
Biocide density: 1.82 gr/cm^3

N#C[S][Cu][S]C#N [Copper thiocyanate]
Biocide density: 2.84 gr/cm^3

N#Cc1c(-c2ccc(Cl)cc2)[nH]c(C(F)(F)F)c1Br [Econea, 4-bromo-2-(4-chlorophenyl)-5-(trifluoromethyl)-1H-pyrrole-3-carbonitrile]
Biocide density: 1.71 gr/cm^3

Zinc pyrithione
Biocide density: 1.78 gr/cm^3
